Literature values, collected in US20230105103A1, “THERAPEUTIC MOLECULES FOR COMBATING SEPSIS” (CENTRE FOR CELLULAR AND MOLECULAR PLATFORMS, priority 2019, published 2023).

System: mice in endotoxemia model
Conditions: Panda et al., 2012; cited from earlier work

For chitohexaose [CHTX], the protection of mice is given as “protect mice”.
